Format in all cases: cell-based
The nature of series [1]: Cell viability staining with Alamar Blue (cytotoxicity CC50), Hep2. As to conditions: human. The method, then: To determine whether the microcidal effect observed against S. aureus and E. coli is specific to bacterial cells, compounds are screened for cell viability effects on several human cell types.
Optimal cell density is first determined by plating cells in a 96-well plate standard sterile tissue culture plates in 100 μl media, 10% FBS at six cell densities from 500 cells/well to 15,000 cells/well. A cell free well containing only media is used as a control. Cells are incubated at 37° C. in a 5% CO2 incubator for 24 hours. 10% culture volume (10 ul) of Alamar Blue (Biosource, DAL1100, 100 mL) is then added. Cells are incubated at 37° C. in a 5% CO2 incubator and read in a Victor V plate reader, 544 nm excitation, 590 nm emission, at 3, 4, and 24 hours after the addition of Alamar Blue. The cell number vs. change in fluorescence is plotted to determine linearity of signal vs. cell number. The optimal density varies between 500-15,000 cells/well depending on the specific cell type. The optimal density is selected based on the highest number of cells that is still in the linear response range.
Determination of Compound Cytotoxicity
Cells are plated at optimal cell density in a standard sterile tissue culture 96 well plate, and incubated at 37° C. O/N in a 5% CO2 incubator. 12 to 48 hours post-plating media is removed. The cells are washed 1 or 2 times with 1×PBS and replaced with fresh media containing the test compound in 1% DMSO. 24 to 72 hours after addition of compound, the media is removed, and the cells washed 1 to 2 times with 1×PBS. Fresh media containing 1/10 volume of Alamar Blue is then added. Plates are incubated 4 hours at 37° C. in a 5% CO2 incubator and read in a Victor V plate reader, 544 nm excitation, 590 nm emission.
Compounds are diluted to 20 micromolar in 1% DMSO and media and screened in duplicate to obtain single concentration cytotoxicity data. Eight concentration points from 0.78 micromolar to 100 micromolar, run in duplicate, are used to determine cyclotoxicity CC50 values. Cells with 1% DMSO and media are used as a negative control, compounds having a known CC50 against a particular cell type are used as positive controls.
The change in fluorescence vs. concentration of test compound is plotted to determine the cytotoxicity of the compound.
Sample media conditions, optimal plating densities, and positive control compounds for two cell types screened are presented in Table III.
For orientation: The colour change of resazurin is a common sign of viable cells or microbes.

The next series relates to E. coli ATCC 25922. The series can be described thus: Minimum Inhibitory Concentration (MIC) assay, E. coli. As to conditions: Escherichia coli, ATCC25922; broth microdilution; read-out: MIC against E. coli. The method in brief: (§1)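 NCCLS broth microdilution in Mueller-Hinton II broth, two-fold dilutions giving final 0.125–128 μg/mL, inoculum ~1×10^6 cfu/mL. Incubated in ambient air at 37 °C for 18–24 h. MIC read as lowest concentration with no visible growth.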
On the technique in general: Broth dilution looks for growth in wells or tubes with falling amounts of substance.

The next series deals with S. aureus ATCC 29213. Nature of the series: Minimum Inhibitory Concentration (MIC) assay, S. aureus. As to conditions: Staphylococcus aureus, ATCC29213; broth microdilution; read-out: MIC against S. Aureus. The method, boiled down: as §1
The test system of another series is MRSA strain ATCC 700699. Nature of the series: Minimum Inhibitory Concentration (MIC) assay, Methicillin Resistant S. Aureus. The following applies: Staphylococcus aureus.
A short description of a further series: in vitro. As to conditions: Chinese hamster.
Setting [2] is: Hep2 cells (ATCC CCL-23), R6 = F, R8 = H compounds, Hep2 ATCC CCL-23, read-out: hep2 CC50.
Where [3] appears, read: R6 = F, R8 = H compounds, MRSA ATCC 700699, read-out: MRSA MIC.

SMILES strings stand for the structures. ≈ marks a conversion by molar mass, not a printed value. Like-named read-outs stand apart in the source and are kept apart here.

Regarding `NC[C@H]1CCN(c2cc3c(cc2F)c(=O)c2c(=O)[nH]sc2n3C2CC2)C1` [Compound 68, (R)-7-(3-(aminomethyl)-pyrrolidin-1-yl)-9-cyclopropyl-6-fluoroiso-thiazolo[5,4-b]quinoline-3,4(2H,9H)-dione], the CC50 – broadly, the concentration at which the toxic effect on the cells reaches its halfway point – in series [1] (setting [2]) came to 2.3 µM. Moreover, the MIC (usually the least concentration at which growth counts as inhibited) in the series with E. coli ATCC 25922 was at most 1 µg/mL; in the series on S. aureus ATCC 29213, at most 1 µg/mL; with MRSA strain ATCC 700699 (setting [3]), 1 µg/mL (≈ 2.67 µM).
Turning to `CNC(C)(C)[C@@H]1CCN(c2c(F)cc3c(=O)c4c(=O)[nH]sc4n(C4CC4)c3c2OC)C1` [Compound 76, (R)-9-cyclo-propyl-6-fluoro-8-methoxy-7-(3-(2-(methyl-amino)propan-2-yl)pyrrolidin-1-yl)isothia-zolo[5,4-b]quinoline-3,4(2H,9H)-dione], the CC50 in series [1] (Hep2 cells (ATCC CCL-23), R6 = F, R8 = Methoxy compounds, Hep2 ATCC CCL-23, read-out: hep2 CC50) turned out to be 27 µM. For the same compound, the minimal inhibitory concentration (MIC) is at most 1 µg/mL in the series with E. coli ATCC 25922; at most 1 µg/mL in the series on S. aureus ATCC 29213; 0.13 µg/mL (≈ 0.291 µM) with MRSA strain ATCC 700699 (R6 = F, R8 = Methoxy compounds, MRSA ATCC 700699, read-out: MRSA MIC); at most 1 µg/mL with MRSA strain ATCC 700699 (broth microdilution, read-out: MIC against Methicillin Resistant S. Aureus).
Regarding `CNC(C)(C)[C@@H]1CCN(c2cc3c(cc2F)c(=O)c2c(=O)[nH]sc2n3C2CC2)C1` [Compound 80, (R)-9-cyclo-propyl-6-fluoro-7-(3-(2-(methylamino)propan-2-yl)-pyrrolidin-1-yl)isothia-zolo[5,4-b]quinoline-3,4(2H,9H)-dione], the half-maximal cytotoxic concentration (CC50) in series [1] (setting [2]) came to 0.57 µM. Besides, the values for the minimal inhibitory concentration (MIC) in the series on E. coli ATCC 25922, in the series with S. aureus ATCC 29213 and in the series on MRSA strain ATCC 700699 (setting [3]) were at most 1 µg/mL, at most 1 µg/mL and 2 µg/mL (≈ 4.8 µM), respectively.
Take `CC(C)(C)c1ccc(C(O)CCCN2CCC(C(O)(c3ccccc3)c3ccccc3)CC2)cc1` (stereo not drawn) [Terfenadine, reference compound]: the results for the CC50 (in series [1]; in “in vitro”) were 3 to 5 µM and 4.3 to 6.5 µM, respectively.

The values are drawn from patent publication US8044204B2, “8-methoxy-9H-isothiazolo[5,4-b]quinoline-3,4-diones and related compounds as anti-infective agents” (Achillion Pharmaceuticals, Inc., priority 2005, dated 2011).
